Experimental data as given in ChEMBL document CHEMBL1125127 (J Med Chem, 1990).
Blank lines part the entries; values can stand above or below the compound they belong to.

Tests used:
[1] = test system: Canis familiaris; experiment: Concentration that causes a 20% increase in APD95 (action potential duration at 95% repolarization) from control value in anesthetized dogs; assay type: functional, Canis lupus familiaris
[2] = test system: Canis familiaris; experiment: Concentration at which maximum change in […] was observed from control value in anesthetized dogs; The maximum observed change APD95 from control value and concentration at 30 uM when this occurred; assay type: functional, Canis lupus familiaris
[3] = target: Beta adrenergic receptor (Canis familiaris)
[4] = target: T1, Beta-2 adrenergic receptor (Canis lupus familiaris, UniProt P54833); experiment: Beta2-receptor selectivity in canine lung tissue in anesthetized dogs; assay type: functional
[5] = test system: Canis familiaris; experiment: Maximum change in […] from control value in anesthetized dogs; 10 uM.; assay type: functional, Canis lupus familiaris
[6] = target: Beta-1 adrenergic receptor (Canis lupus familiaris); experiment: Tested for beta1-receptor selectivity in canine cardiac tissue in anesthetized dogs
[7] = target: Adrenergic receptor beta (Canis lupus familiaris); experiment: Tested for beta-receptor binding inhibition from canine ventricular tissue, using [3H]dihydroalprenolol as the radioligand in anesthetized dogs
[8] = Ratio of number of active animals to number of treated animals; No of animals tested=2; assay type: functional
[9] = test system: Canis familiaris; experiment: Concentration at which maximum change in […] was observed from control value in anesthetized dogs; The maximum observed change APD95 from control value and concentration at 100 uM when this occurred; assay type: functional, Canis lupus familiaris
[10] = test system: Canis familiaris; experiment: Percent change in FRP from control at active dose 30 mg/kg administered intraperitoneally in anesthetized dogs; assay type: functional, Canis lupus familiaris; conditions: route intraperitoneal
[11] = test system: Canis familiaris; experiment: Percent change in blood pressure (BP) from control at active dose 30 mg/kg administered intraperitoneally in anesthetized dogs; assay type: functional, Canis lupus familiaris; conditions: route intraperitoneal
[12] = Ratio of number of active animals to number of treated at dose 30 mg/kg administered intraperitoneally in anesthetized dogs; No of animals tested=2; assay type: functional; conditions: route intraperitoneal
[13] = test system: Canis familiaris; experiment: Percent change in heart rate (HR) from control at active dose 30 mg/kg administered intraduodenally; conditions: route intraduodenal
[14] = target: Beta-1 adrenergic receptor (Canis familiaris)
[15] = test system: Canis familiaris; experiment: Percent change in FRP from control at active dose 10-30 mg/kg administered intraperitoneally in anesthetized dogs; assay type: functional, Canis lupus familiaris
[16] = test system: Canis familiaris; experiment: Percent change in blood pressure (BP) from control at active dose 10-30 mg/kg administered intraperitoneally in anesthetized dogs; assay type: functional, Canis lupus familiaris
[17] = test system: Canis familiaris; experiment: Percent change in heart rate (HR) from control at active dose 10-30 mg/kg administered intraperitoneally; assay type: functional, Canis lupus familiaris
[18] = test system: Canis familiaris; experiment: Percent change in blood pressure (BP) from control at active dose 0.3-10 mg/kg administered intraperitoneally in anesthetized dogs; assay type: functional, Canis lupus familiaris
[19] = test system: Canis familiaris; experiment: Percent change in heart rate (HR) from control at active dose 0.3-10 mg/kg administered intraperitoneally in anesthetized dogs; assay type: functional, Canis lupus familiaris
[20] = test system: Canis familiaris; experiment: Percent change in FRP from control at active dose 0.3-10 mg/kg administered intraperitoneally; assay type: functional, Canis lupus familiaris
[21] = Ratio of number of active animals to number of treated at dose 1.0 mg/kg administered intraperitoneally in Epinephrine-induced model in anesthetized dogs; 4/4; assay type: functional; conditions: route intraperitoneal
[22] = Ratio of number of active animals to number of treated at dose 3.0 mg/kg administered intraperitoneally in Epinephrine-induced model in anesthetized dogs; 6/6; conditions: route intraperitoneal
[23] = test system: Canis familiaris; experiment: Percent change in FRP from control at active dose 10 mg/kg administered intraperitoneally in anesthetized dogs; assay type: functional, Canis lupus familiaris; conditions: route intraperitoneal
[24] = test system: Canis familiaris; experiment: Percent change in blood pressure (BP) from control at active dose 1.0-10 mg/kg administered intraperitoneally in anesthetized dogs; assay type: functional, Canis lupus familiaris
[25] = test system: Canis familiaris; experiment: Percent change in blood pressure (BP) from control at active dose 10 mg/kg administered intraperitoneally in anesthetized dogs; assay type: functional, Canis lupus familiaris; conditions: route intraperitoneal
[26] = test system: Canis familiaris; experiment: Percent change in heart rate (HR) from control at active dose 1.0-10 mg/kg administered intraperitoneally in anesthetized dogs; assay type: functional, Canis lupus familiaris
[27] = test system: Canis familiaris; experiment: Percent change in FRP from control at active dose 1.0-10 mg/kg administered intraperitoneally; assay type: functional, Canis lupus familiaris
[28] = Ratio of number of active animals to number of treated at dose 1.0-10 mg/kg administered intraperitoneally in PES model in anesthetized dogs; 3/5; assay type: functional
[29] = target: T1, Beta-2 adrenergic receptor
Description: Tested for Beta-2 adrenergic receptor selectivity in canine lung tissue in anesthetized dogs

[30] = test system: Canis familiaris; experiment: Percent change in heart rate (HR) from control at active dose 10 mg/kg administered intraduodenally; conditions: route intraduodenal
[31] = Ratio of number of active animals to number of treated at dose 10 mg/kg administered intraperitoneally in anesthetized dogs; No of animals tested=2; assay type: functional; conditions: route intraperitoneal
[32] = Ratio of number of active animals to number of treated at dose 1.0 mg/kg administered intraperitoneally in Epinephrine-induced model in anesthetized dogs; 4/8; assay type: functional; conditions: route intraperitoneal
[33] = test system: Canis familiaris; experiment: Percent change in heart rate (HR) from control at active dose 10 mg/kg administered intraduodenally; conditions: route intraduodenal; remark: listed apart in the source
[34] = Ratio of number of active animals to number of treated at dose 1.0-10 mg/kg administered intravenously in PES model in conscious dogs; 5/6
[35] = Ratio of number of active animals to number of treated administered intraperitoneally in Epinephrine-induced model in anesthetized dogs; 4/8; conditions: route intraperitoneal
[36] = test system: Canis familiaris; experiment: Percent change in FRP from control at active dose 1.0-10 mg/kg administered intravenously
[37] = test system: Canis familiaris; experiment: Percent change in heart rate (HR) from control at active dose 1.0-10 mg/kg administered intravenously in conscious dogs

T1 sequence (P54833 whole entry): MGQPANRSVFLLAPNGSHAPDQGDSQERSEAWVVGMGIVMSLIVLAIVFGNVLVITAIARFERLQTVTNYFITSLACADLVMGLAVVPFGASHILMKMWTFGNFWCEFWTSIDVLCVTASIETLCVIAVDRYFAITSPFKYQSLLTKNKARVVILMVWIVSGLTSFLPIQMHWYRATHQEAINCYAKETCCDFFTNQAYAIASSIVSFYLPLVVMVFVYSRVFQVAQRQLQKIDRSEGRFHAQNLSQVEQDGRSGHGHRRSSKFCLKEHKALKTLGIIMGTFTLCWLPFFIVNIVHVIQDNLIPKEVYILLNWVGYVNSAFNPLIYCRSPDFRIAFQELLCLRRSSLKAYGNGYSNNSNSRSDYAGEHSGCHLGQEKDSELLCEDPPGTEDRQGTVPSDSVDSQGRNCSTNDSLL

Structure (SMILES): OC(CNCCOc1ccc(-n2ccnc2)cc1)COc1ccccc1 (stereo not given)
IC50 [4]: 0.28 µM
C20 APD95 [1]: 8.8 µM
Max delta [5]: 21%
IC50 [6]: 0.04 µM
IC50 [7]: 0.04 µM

Structure (SMILES): CS(=O)(=O)Nc1ccc(C(=O)NCCNCC(O)COc2cccc3ccccc23)cc1 (stereo not given)
C20 [1]: 1.1 µM
Max delta [5]: 48%
Ratio [8]: 0
IC50 [3]: 0.15 µM

Structure (SMILES): COCCc1ccc(OCC(O)CNCCOc2ccc(-n3ccnc3)cc2)cc1 (stereo not given)
IC50 [4]: 4.5 µM
C20 APD95 [1]: 14.8 µM
Max delta [9]: 89%

Structure (SMILES): CCN(CC)CCNC(=O)c1ccc(NS(C)(=O)=O)cc1 [SEMATILIDE]
C20 [1]: 4.4 µM
Max delta [9]: 65%

Structure (SMILES): CC(C)NCC(O)c1ccc(NS(C)(=O)=O)cc1 (stereo not given) [SOTALOL]
C20 [1]: 14.4 µM
Max delta [9]: 48%
Change [15]: 17%
Change [16]: 9%
Change [17]: -10%
Change [18]: 8%
Change [19]: -6%
Change [20]: 14%
No. of active/no. of tested [21]: 4
No. of active/no. of tested [22]: 6

Structure (SMILES): OC(CNCCOc1ccc(-n2ccnc2)cc1)CONC(C1CC1)C1CC1 (stereo not given)
Change [23]: 20%
C20 APD95 [1]: 1.5 µM
Max delta [5]: 87%
Change [24]: -5%
Change [25]: 2%
Change [36]: 3%
Change [30]: -18%
Change [37]: -13%
IC50 [7]: 0.3 µM

Second part, led by results:

IC50 [3]: 2.9 µM
Structure (SMILES): CS(=O)(=O)Nc1ccc(C(=O)NCCNCC(O)COc2ccccc2C#N)cc1 (stereo not given)
C20 [1]: 23.7 µM
Max delta [2]: 31%

IC50 [3]: 227 µM
Structure (SMILES): CS(=O)(=O)Nc1ccc(OCC(O)CNCCNC(=O)c2ccc(-n3ccnc3)cc2)cc1 (stereo not given)
C20 [1]: 5.8 µM
Max delta [9]: 58%
Change [10]: 14%
Change [11]: 30%
Ratio [12]: 1
Change [13]: -18%

IC50 [14]: 33.1 µM
Structure (SMILES): CS(=O)(=O)Nc1ccc(OCC(O)CNCc2ccc(-n3ccnc3)cc2)cc1 (stereo not given)
C20 [1]: 1.8 µM
Max delta [2]: 67%

IC50 [3]: 192 µM
Structure (SMILES): CS(=O)(=O)Nc1ccc(C(=O)NC2CCCCC2NCC(O)COc2ccccc2)cc1 (stereo not given)
C20 [1]: 5.3 µM
Max delta [5]: 45%
Change [10]: 15%
Change [11]: 17%
Ratio [12]: 2
Change [13]: -19%

IC50 [3]: 3.9 µM
Structure (SMILES): CS(=O)(=O)Nc1ccc(C(=O)NCCNCC(O)COc2ccccc2)cc1 (stereo not given)
C20 [1]: 7.1 µM
Max delta [2]: 26%
Ratio [8]: 0

IC50 [3]: 293 µM
Structure (SMILES): CC(=O)Nc1ccc(OCC(O)CN2CCN(c3ccc(NS(C)(=O)=O)cc3)CC2)cc1 (stereo not given)
C20 [1]: 42 µM
Max delta [9]: 39%

IC50 [29]: 49.3 µM
Structure (SMILES): Cc1cccc(OCC(O)CN2CCN(c3ccc(NS(C)(=O)=O)cc3)CC2)c1 (stereo not given)
Change [23]: 17%
C20 [1]: <1 µM
Max delta [5]: 55%
Change [24]: -1%
Change [25]: 13%
Change [26]: 18%
Change [27]: 13%
No. effective [28]: 3
Change [30]: -21%

IC50 [14]: 3.3 µM
IC50 [29]: 6.6 µM
IC50 [3]: 2.3 µM
Structure (SMILES): Cc1ccccc1OCC(O)CN1CCN(c2ccc(NS(C)(=O)=O)cc2)CC1 (stereo not given)
Change [23]: 13%
C20 [1]: <4.5 µM
Max delta [5]: 53%
Change [24]: 13%
Change [25]: 11%
Change [26]: -3%
Change [27]: 8%
Ratio [31]: 2
No. effective [32]: 4
Change [33]: -11%
No. effective [34]: 5
Ratio [35]: 0.5
